Experimental data reported in EP4772177A1, “MUSCLE ATROPHY INHIBITOR” (National University Corporation Kobe University, priority 2023, dated 2025).

Key:
[1] = system: muscle atrophy model mice (immobilized mice); test: Effects of hydroxylated fatty acid on muscle atrophy model mice (hind limbs immobilized with plastic casts); type: in vivo, C57BL/6J mice; conditions: 1% in diet for 20 days (immobilization for the latter 10 days); for loss of soleus muscle (muscle weight per body weight): Fig. 2, n = 6; for loss of gastrocnemius muscle (gastrocnemius muscle weight per body weight): Fig. 3, n = 6; for loss of soleus muscle cross-sectional area: HE staining, 400 fibers pooled from 2 mice, Fig. 4
Text: C57BL/6J mice (male, 10 weeks old) were fed a normal diet (CE-2, CLEA Japan, Inc.), a 1% linoleic acid-containing diet (LA), or a 1% 10-hydroxy-cis-12-octadecenoic acid-containing diet (HYA) (LA manufactured by Sigma-Aldrich and HYA manufactured by Noster Inc. were used) each for 10 days. Then, under general anesthesia, both hind limbs of the mice were immobilized with plastic casts to create immobilized mice. After 10 days of immobilization (still receiving the normal diet or each mixed diet), the mice were sacrificed and weighed. Both soleus muscles were then collected and weighed. The comparison results of muscle weight per body weight are shown in Fig. 2 (n = 6, *P < 0.05, **P < 0.01, 2-way ANOVA with Bonferroni's post hoc test). Furthermore, under the same conditions, both gastrocnemius muscles were collected and weighed. The comparison results of gastrocnemius muscle weight per body weight are shown in Fig. 3 (n = 6, *P < 0.05, **P < 0.01, 2-way ANOVA with Bonferroni's post hoc test).
(§1) In addition, the formalin-soaked soleus muscles were cut in the cross section at its largest diameter, and sections were prepared. After HE staining, the cross-sectional area of the muscle fibers was measured. The comparison results of soleus muscle cross-sectional area are shown in Fig. 4 (the area of 400 fibers pooled from 2 mice was measured and averaged for each condition, **P < 0.01, 2-way ANOVA with Bonferroni's post hoc test).

[2] = system: muscle atrophy model mice (high-fat diet administered mice); test: Effects of hydroxylated fatty acid on muscle atrophy model mice (high-fat diet administration); type: in vivo, C57BL/6J mice; conditions: 1% added to high-fat diet for 14 days, compared to administration of a high-fat diet alone; for soleus muscle weight (per body weight): Fig. 7, n = 12; for gastrocnemius muscle weight (per body weight): Fig. 8, n = 12; for tibialis anterior muscle cross-sectional area: HE staining, 400 fibers pooled from 2 mice, Fig. 9(B)
Protocol: C57BL/6J mice (male, 10 weeks old) were fed a normal diet (CE-2, CLEA Japan, Inc.), a high-fat diet (HFD32, CLEA Japan, Inc.), a 1% HYA-added high-fat diet, or a 1% LA (linoleic acid)-added high-fat diet (HYA manufactured by Noster Inc., LA manufactured by Sigma-Aldrich were used) each for 14 days to create a muscle atrophy model mouse by high-fat diet administration, and the effects by the administration of hydroxylated fatty acid were evaluated.
C57BL/6J mice (male, 10 weeks old) were fed a normal diet (CE-2, CLEA Japan, Inc.), a high-fat diet (HFD32, CLEA Japan, Inc.), a 1% HYA-added high-fat diet, or a 1% LA (linoleic acid)-added high-fat diet each for 14 days. After feeding, the mice were sacrificed and weighed. Both soleus muscles were collected and weighed. The comparison results of soleus muscle weight per body weight are shown in Fig. 7 (n = 12, **P < 0.01, 2-way ANOVA with Bonferroni's post hoc test). Furthermore, under the same conditions, both gastrocnemius muscles were collected and weighed. The comparison results of gastrocnemius muscle weight per body weight are shown in Fig. 8 (n = 12, **P < 0.01, 2-way ANOVA with Bonferroni's post hoc test).
as §1, with “formalin-soaked tibialis anterior muscle was” for “formalin-soaked soleus muscles were”, “HE staining (Fig. 9(A)),” for “HE staining,”, “of tibialis anterior” for “of soleus”, “Fig. 9(B)” for “Fig. 4”

[3] = compared to administration of a normal diet
[4] = compared to administration of linoleic acid

Structure (SMILES) | loss of soleus muscle (muscle weight per body weight) [1, 3] | loss of gastrocnemius muscle (gastrocnemius muscle weight per body weight) [1, 3] | loss of soleus muscle cross-sectional area [1, 3] | loss of gastrocnemius muscle (gastrocnemius muscle weight per body weight) [1, 4] | loss of soleus muscle cross-sectional area [1, 4] | soleus muscle weight (per body weight) [2] | gastrocnemius muscle weight (per body weight) [2] | tibialis anterior muscle cross-sectional area [2]
CCCCC/C=C\CC(O)CCCCCCCCC(=O)O (stereo not drawn) [HYA, 10-hydroxy-cis-12-octadecenoic acid] | significantly inhibited | significantly inhibited | significantly inhibited | significantly inhibited | significantly inhibited | significantly increased | significantly increased | significantly increased
CCCCC/C=C\C/C=C\CCCCCCCC(=O)O [linoleic acid, reference compound] | did not significantly inhibit | did not significantly inhibit | did not significantly inhibit |  |  | a tendency toward an increase | a tendency toward an increase | a tendency toward an increase
